The values that follow are results of earlier work, collected in patent US20080139497A1, “Use of ATP in controlled regional reperfusion as treatment during acute myocardial infarction” (priority 2006, published 2008).

The conditions of data set [1]: small amount, exogenously administered, hypoxic myocardium.
For data set [2], the system named is cultured myocardial cells. To be noted: addition to cultured myocardial cells.
The next data set deals with isolated muscle fibers. As to conditions: externally added.
For data set [3] the following is noted: injected into isolated nonperfused hypothermic dog hearts.
For data set [4] the following is noted: added to the perfusate.
For data set [5] the following is noted: from a toxic injury.
The conditions of data set [6]: infused into left coronary artery, patients with coronary artery disease.
For data set [7] the following is noted: in man.
The conditions of data set [8]: following prolonged ischemia, infusion.
The conditions of data set [9]: following normothermic ischemia, infusion of low dose.
For data set [10] the following is noted: treatment after experimental acute myocardial ischemia.
For data set [11] the following is noted: after acute renal failure in mini-pigs.
The conditions of data set [12]: infusion; after hemorrhagic shock, severe burns, sepsis-peritonitis, post-ischemic hepatic failure, endotoxin shock.
The conditions of data set [13]: after acute renal failure in rats.

Where two headings read alike, the source gives them in different places.

For `Nc1ncnc2c1ncn2[C@@H]1O[C@H](COP(=O)(O)OP(=O)(O)O)[C@@H](O)[C@H]1O` [ADP], the “ATP and total adenine nucleotide content” value in data set [1] is given as “not”.
On to `Nc1ncnc2c1ncn2[C@@H]1O[C@H](COP(=O)(O)O)[C@@H](O)[C@H]1O` [AMP], for which, in data set [2], the ATP content entry is “neither adenosine nor AMP produced this effect”. The “ATP and total adenine nucleotide content” value in data set [1] is given as “not”.
For the compound `Nc1ncnc2c1ncn2[C@@H]1O[C@H](COP(=O)(O)OP(=O)(O)OP(=O)(O)O)[C@@H](O)[C@H]1O` [ATP, adenosine 5′-triphosphate], the ATP content result in [2] was “caused an increase in ATP content”. The “ATP and total adenine nucleotide content” value in data set [1] is “increased the ATP and total adenine nucleotide content”. The contraction entry in the data set with isolated muscle fibers was “induced contraction”. The “nucleotide and phosphocreatine levels” value in [3] was “improved nucleotide and phosphocreatine levels”.
With `Nc1ncnc2c1ncn2[C@@H]1O[C@H](CO)[C@@H](O)[C@H]1O` [adenosine], the ATP content result in [2] was “neither adenosine nor AMP produced this effect”.
Turning to ATP-MgCl2, the “salvage of kidneys subjected to warm ischemia” value in [4] is “could be salvaged”. Further, the renal recovery entry in data set [5] was “effective in hastening renal recovery”. Also, in data set [6], the myocardial oxygen consumption result was “reduction of myocardial oxygen consumption”. Besides, the “safety and hemodynamic response” value in data set [7] is on record as “has been demonstrated”. Also, the myocardial performance entry in [8] is recorded as “can improve myocardial performance”. Moreover, the “ornithine metabolism and tissue lactate level” value (during hemorrhagic shock, exogenously administered) is “can reverse the inhibition of ornithine metabolism and the change in tissue lactate level”. Also, the tissue lactate production result (infused) is listed as “decreased tissue lactate production”. Further, the myocardial recovery result in data set [9] is recorded as “improved myocardial recovery”. Besides, the “protection of the heart from ischemia” value in data set [10] is given as “protects the heart from the adverse effects of ischemia”. The “recovery of renal function” value in data set [11] and in data set [13] was “accelerate the recovery of renal function” throughout. The survival of animals entry in data set [12] is given as “proved beneficial for the survival of animals”.
